Measurements from patent publication US10538555B2, “Macrocyclic inhibitors of the PD-1/PD-L1 and CD80(B7-1)/PD-L1 protein/protein interactions” (BRISTOL-MYERS SQUIBB COMPANY, priority 2014, dated 2020).
Where a SMILES comes first, the peptide text is derived from it. Bridges are numbered along the chain shown (N, C = ends). [ ]: non-standard residue; d: D form. ξ: configuration not given here. Phe(3,4,5-F3) = N[C@@H](Cc1cc(F)c(F)c(F)c1)C(=O)O; Phe(4-F) = N[C@@H](Cc1ccc(F)cc1)C(=O)O; d(cisHyp) = O=C(O)[C@H]1C[C@@H](O)CN1; Bta = N[C@@H](Cc1csc2ccccc12)C(=O)O; Hyp = O=C(O)[C@@H]1C[C@@H](O)CN1; NMeF = CN[C@@H](Cc1ccccc1)C(=O)O; dHyp = O=C(O)[C@H]1C[C@H](O)CN1; NMeNle = CCCC[C@H](NC)C(=O)O; dNle = CCCC[C@@H](N)C(=O)O; Pip = O=C(O)[C@@H]1CCCCN1; dPip = O=C(O)[C@H]1CCCCN1; hSer = N[C@@H](CCO)C(=O)O; NMeA = CN[C@@H](C)C(=O)O; Orn = NCCC[C@H](N)C(=O)O; dThz = O=C(O)[C@H]1CSCN1; Dab = NCC[C@H](N)C(=O)O; Dap = NC[C@H](N)C(=O)O; ξC = NC(CS)C(=O)O; Sar = CNCC(=O)O

Molecular target: T1, Human PD-L1/PD-1 (Homo sapiens, UniProt Q9NZQ7)
T1 construct: TVMV protease cleavage site (C); made in house; host or cells: HEK293T cells
Assay: HTRF Human PD-L1/PD-1 binding assay (PD-1-Ig/PD-L1-His)
Conditions: PD-L1-His 10 nM, PD-1-Ig 20 nM; class symbol; read-out: HTRF Human PD-L1/PD-1 Binding Assay IC50 Range
Summary of the method: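 Step 1: compound with PD-L1-His (10 nM final), 15 min. Step 2: PD-1-Ig (20 nM final), 15 min. Step 3: Eu-cryptate anti-Ig (1 nM) plus APC anti-His (20 nM), 30 min equilibration. Signal taken as 665 nm/620 nm ratio.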

T1 sequence (Q9NZQ7 with tags, fused parts or gaps): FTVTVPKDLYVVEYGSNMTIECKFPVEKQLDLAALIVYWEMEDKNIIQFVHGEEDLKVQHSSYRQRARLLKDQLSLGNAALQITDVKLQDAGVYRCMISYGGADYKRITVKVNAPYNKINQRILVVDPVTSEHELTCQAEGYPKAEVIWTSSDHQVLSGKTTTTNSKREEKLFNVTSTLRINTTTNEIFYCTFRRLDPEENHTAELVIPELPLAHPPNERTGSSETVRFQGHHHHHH

SMILES	IC50 [nM]
CCCC[C@H]1NC(=O)[C@H](Cc2c[nH]c3ccccc23)NC(=O)[C@H](CO)NC(=O)[C@H](Cc2c[nH]c3ccccc23)NC(=O)[C@@H]2C[C@@H](O)CN2C(=O)[C@H](CCCN)NC(=O)[C@H](Cc2cnc[nH]2)NC(=O)[C@@H]2CCCN2C(=O)[C@H](CC(N)=O)NC(=O)[C@H](C)N(C)C(=O)[C@H](Cc2ccc(O)cc2)NC(=O)CSCC(C(=O)NCC(N)=O)NC(=O)[C@H](CCC(=O)O)NC(=O)[C@H](CCCC)N(C)C1=O (stereo partly shown) [Example 10129] ({CH2CO}-Y[NMeA]NPH[Orn][Hyp]WSW[dNle][NMeNle]E[ξC]G-NH2; thioether N-14)	1000 to 10000
CCCC[C@H]1C(=O)N(C)CC(=O)N[C@@H](CC(N)=O)C(=O)N[C@@H](C(C)C)C(=O)N(C)[C@@H](Cc2ccccc2)C(=O)N[C@@H](Cc2ccc(O)cc2)C(=O)N(C)CC(=O)N[C@@H](Cc2c[nH]c3ccccc23)C(=O)N[C@@H](Cc2ccc(O)cc2)C(=O)N[C@@H](CCCN)C(=O)N[C@H](C(=O)NCC(N)=O)CSCC(=O)N[C@@H](Cc2ccccc2)C(=O)N(C)[C@@H](Cc2ccncc2)C(=O)N1C (single isomer, unassigned) [Example 3638-B]	10 to 99.9
CCCC[C@H]1C(=O)N(C)CC(=O)N[C@@H](CC(=O)O)C(=O)N[C@@H](C(C)C)C(=O)N[C@@H](Cc2c[nH]c3ccccc23)C(=O)N[C@@H](Cc2ccc(O)cc2)C(=O)N(C)CC(=O)N[C@@H](Cc2c[nH]c3ccccc23)C(=O)N[C@@H](Cc2ccc(O)cc2)C(=O)N[C@@H](CC(C)C)C(=O)N[C@H](C(=O)NCC(N)=O)CSCC(=O)N[C@@H](Cc2ccccc2)C(=O)N(C)[C@@H](Cc2ccccc2)C(=O)N1C [Example 3232] ({CH2CO}-F[NMeF][NMeNle][Sar]DVWY[Sar]WYLCG-NH2; thioether N-13)	1000 to 10000
CCCC[C@H]1C(=O)N2CCC[C@@H]2C(=O)N[C@@H](CC(=O)O)C(=O)N[C@@H](C)C(=O)N(C)[C@@H](Cc2ccccc2)C(=O)N[C@@H](Cc2ccc(O)cc2)C(=O)N2CSC[C@@H]2C(=O)N[C@@H](Cc2c[nH]c3ccccc23)C(=O)N[C@@H](Cc2ccc(O)cc2)C(=O)N[C@@H](CC(C)C)C(=O)N[C@H](C(=O)NCC(N)=O)CSCC(=O)N[C@@H](Cc2ccccc2)C(=O)N(C)[C@@H](Cc2ccccc2)C(=O)N1C [Example 10088] ({CH2CO}-F[NMeF][NMeNle][dP]DA[NMeF]Y[dThz]WYLCG-NH2; thioether N-13)	10 to 99.9
CCCC[C@H]1C(=O)N2C[C@@H](O)C[C@@H]2C(=O)N[C@@H](CC(=O)O)C(=O)N[C@@H](C)C(=O)N(C)[C@@H](Cc2ccccc2)C(=O)N[C@@H](Cc2ccc(O)cc2)C(=O)N(C)CC(=O)N[C@@H](Cc2c[nH]c3ccccc23)C(=O)N[C@@H](Cc2ccc(O)cc2)C(=O)N[C@@H](CC(C)C)C(=O)N[C@H](C(=O)NCC(N)=O)CSCC(=O)N[C@@H](Cc2ccccc2)C(=O)N(C)[C@@H](Cc2ccccc2)C(=O)N1C [Example 10086] ({CH2CO}-F[NMeF][NMeNle][dHyp]DA[NMeF]Y[Sar]WYLCG-NH2; thioether N-13)	10 to 99.9
CCCC[C@H]1C(=O)N(C)[C@@H](CCCC)C(=O)N[C@@H](CCCNC(=N)N)C(=O)N[C@H](C(=O)NCC(N)=O)CSCC(=O)N[C@@H](Cc2ccc(O)cc2)C(=O)N2CCCC[C@H]2C(=O)N[C@@H](CCC(=O)O)C(=O)N2CCC[C@H]2C(=O)N[C@@H](Cc2c[nH]cn2)C(=O)N[C@@H](CCCN)C(=O)N2C[C@H](O)C[C@H]2C(=O)N[C@@H](Cc2c[nH]c3ccccc23)C(=O)N[C@@H](CO)C(=O)N[C@@H](Cc2c[nH]c3ccccc23)C(=O)N1C [Example 1538] ({CH2CO}-Y[Pip]EPH[Orn][Hyp]WSW[NMeNle][NMeNle]RCG-NH2; thioether N-14)	10 to 99.9
CCCC[C@H]1C(=O)N(C)CC(=O)N[C@@H](CC(=O)O)C(=O)N[C@@H](C)C(=O)N(C)[C@@H](Cc2ccccc2)C(=O)N[C@@H](Cc2ccc(O)cc2)C(=O)N2CCCC[C@@H]2C(=O)N[C@@H](Cc2c[nH]c3ccccc23)C(=O)N[C@@H](Cc2ccc(O)cc2)C(=O)N[C@@H](CC(C)C)C(=O)N[C@H](C(=O)NCC(N)=O)CSCC(=O)N[C@@H](Cc2ccccc2)C(=O)N(C)[C@@H](Cc2ccccc2)C(=O)N1C [Example 10081] ({CH2CO}-F[NMeF][NMeNle][Sar]DA[NMeF]Y[dPip]WYLCG-NH2; thioether N-13)	10 to 99.9
CCCC[C@H]1C(=O)N(C)CC(=O)N[C@@H](CC(=O)O)C(=O)N[C@@H](C)C(=O)N(C)[C@@H](Cc2ccccc2)C(=O)N[C@@H](Cc2ccc(O)cc2)C(=O)N2CSC[C@@H]2C(=O)N[C@@H](Cc2c[nH]c3ccccc23)C(=O)N[C@@H](Cc2ccc(O)cc2)C(=O)N[C@@H](CC(C)C)C(=O)N[C@H](C(=O)NCC(N)=O)CSCC(=O)N[C@@H](Cc2ccccc2)C(=O)N(C)[C@@H](Cc2ccccc2)C(=O)N1C [Example 10082] ({CH2CO}-F[NMeF][NMeNle][Sar]DA[NMeF]Y[dThz]WYLCG-NH2; thioether N-13)	100 to 990
CCCC[C@H]1C(=O)N[C@@H](CC(N)=O)C(=O)N2CCC[C@H]2C(=O)N[C@@H](CO)C(=O)N[C@@H](CCO)C(=O)N2C[C@H](O)C[C@H]2C(=O)N[C@@H](Cc2c[nH]c3ccccc23)C(=O)N[C@@H](CO)C(=O)N[C@@H](Cc2c[nH]c3ccccc23)C(=O)N(C)[C@@H](C)C(=O)N(C)[C@@H](C)C(=O)N[C@@H](CCCCN)C(=O)NC(C(=O)NCC(N)=O)CSCC(=O)N[C@@H](Cc2ccc(O)cc2)C(=O)N1C (stereo partly shown) [Example 10211] ({CH2CO}-Y[NMeNle]NPS[hSer][Hyp]WSW[NMeA][NMeA]K[ξC]G-NH2; thioether N-14)	1000 to 10000

Next, values leading:

IC50 [nM]	SMILES
1 to 9.9	CCCC[C@H]1C(=O)N(C)[C@@H](CCCC)C(=O)N[C@@H](CCN)C(=O)NC(C(=O)NCC(N)=O)CSCC(=O)N[C@@H](Cc2ccc(O)cc2)C(=O)N(C)[C@@H](C)C(=O)N[C@@H](CC(N)=O)C(=O)N2CCC[C@H]2C(=O)N[C@@H](CC(N)=O)C(=O)N[C@@H](CC(C)C)C(=O)N2C[C@H](O)C[C@H]2C(=O)N[C@@H](Cc2c[nH]c3ccccc23)C(=O)N[C@@H](CO)C(=O)N[C@@H](Cc2csc3ccccc23)C(=O)N1C (stereo partly shown) [Example 9165] ({CH2CO}-Y[NMeA]NPNL[Hyp]WS[Bta][NMeNle][NMeNle][Dab][ξC]G-NH2; thioether N-14)
1 to 9.9	CCCC[C@H]1C(=O)N2CCC[C@@H]2C(=O)N[C@@H](CC(=O)O)C(=O)N[C@@H](C(C)C)C(=O)N(C)[C@@H](Cc2ccccc2)C(=O)N[C@@H](CC(=O)O)C(=O)N2CCC[C@@H]2C(=O)N[C@@H](Cc2c[nH]c3ccccc23)C(=O)N[C@@H](Cc2ccc(O)cc2)C(=O)N[C@@H](CC(C)C)C(=O)N[C@H](C(=O)NCC(N)=O)CSCC(=O)N[C@@H](Cc2ccc(F)cc2)C(=O)N(C)[C@@H](Cc2ccccc2)C(=O)N1C [Example 10106] ({CH2CO}-[Phe(4-F)][NMeF][NMeNle][dP]DV[NMeF]D[dP]WYLCG-NH2; thioether N-13)
10 to 99.9	CCCC[C@H]1C(=O)N2C[C@H](O)C[C@@H]2C(=O)N[C@@H](CC(=O)O)C(=O)N[C@@H](C(C)C)C(=O)N(C)[C@@H](Cc2ccccc2)C(=O)N[C@@H](CC(N)=O)C(=O)N2C[C@H](O)C[C@@H]2C(=O)N[C@@H](Cc2c[nH]c3ccccc23)C(=O)N[C@@H](Cc2ccc(O)cc2)C(=O)N[C@@H](CCN)C(=O)N[C@H](C(=O)NCC(N)=O)CSCC(=O)N[C@@H](Cc2cc(F)c(F)c(F)c2)C(=O)N(C)[C@@H](Cc2ccccc2)C(=O)N1C [Example 9364] ({CH2CO}-[Phe(3,4,5-F3)][NMeF][NMeNle][d(cisHyp)]DV[NMeF]N[d(cisHyp)]WY[Dab]CG-NH2; thioether N-13)
1 to 9.9	CCCC[C@H]1C(=O)N(C)[C@@H](CCCC)C(=O)N[C@@H](CCC(=O)O)C(=O)N[C@H](C(=O)NCC(N)=O)CSCC(=O)N[C@@H](Cc2ccc(O)cc2)C(=O)N(C)[C@@H](C)C(=O)N[C@@H](CC(=O)O)C(=O)N2CCC[C@H]2C(=O)N[C@@H](CN)C(=O)N[C@@H](CCC(N)=O)C(=O)N2C[C@H](O)C[C@H]2C(=O)N[C@@H](Cc2c[nH]c3ccccc23)C(=O)N[C@@H](CO)C(=O)N[C@@H](Cc2c[nH]c3ccccc23)C(=O)N1C [Example 5246] ({CH2CO}-Y[NMeA]DP[Dap]Q[Hyp]WSW[NMeNle][NMeNle]ECG-NH2; thioether N-14)
10 to 99.9	CCCC[C@H]1C(=O)N2C[C@@H](O)C[C@@H]2C(=O)N[C@@H](CC(=O)O)C(=O)N[C@@H](C)C(=O)N(C)[C@@H](Cc2ccccc2)C(=O)N[C@@H](Cc2ccc(O)cc2)C(=O)N2C[C@@H](O)C[C@@H]2C(=O)N[C@@H](Cc2c[nH]c3ccccc23)C(=O)N[C@@H](Cc2ccc(O)cc2)C(=O)N[C@@H](CC(C)C)C(=O)N[C@H](C(=O)NCC(N)=O)CSCC(=O)N[C@@H](Cc2ccccc2)C(=O)N(C)[C@@H](Cc2ccccc2)C(=O)N1C [Example 10079] ({CH2CO}-F[NMeF][NMeNle][dHyp]DA[NMeF]Y[dHyp]WYLCG-NH2; thioether N-13)
1 to 9.9	CCCC[C@H]1C(=O)N(C)[C@@H](CCCC)C(=O)N[C@@H](CCCN)C(=O)N[C@H](C(=O)NCC(N)=O)CSCC(=O)N[C@@H](Cc2ccc(OC)cc2)C(=O)N(C)[C@@H](C)C(=O)N[C@@H](CC(N)=O)C(=O)N2CCC[C@H]2C(=O)N[C@@H](Cc2cnc[nH]2)C(=O)N[C@@H](CCCCN)C(=O)N2C[C@H](O)C[C@H]2C(=O)N[C@@H](Cc2c[nH]c3ccccc23)C(=O)N[C@@H](CCN)C(=O)N[C@@H](Cc2c[nH]c3ccccc23)C(=O)N1C [Example 7093] ({CH2CO}-Y(Me)[NMeA]NPHK[Hyp]W[Dab]W[NMeNle][NMeNle][Orn]CG-NH2; thioether N-14)
1 to 9.9	CCCC[C@H]1C(=O)N(C)[C@@H](CCCC)C(=O)N[C@@H](CCCNC(=N)N)C(=O)NC(C(=O)NCC(N)=O)CSCC(=O)N[C@@H](Cc2ccc(O)cc2)C(=O)N(C)[C@@H](C)C(=O)N[C@@H](CC(N)=O)C(=O)N2CCC[C@H]2C(=O)N[C@@H](CC(N)=O)C(=O)N[C@@H](CC(C)C)C(=O)N2CCC[C@H]2C(=O)N[C@@H](Cc2c[nH]c3ccccc23)C(=O)N[C@@H](CCO)C(=O)N[C@@H](Cc2csc3ccccc23)C(=O)N1C (stereo partly shown) [Example 9129] ({CH2CO}-Y[NMeA]NPNLPW[hSer][Bta][NMeNle][NMeNle]R[ξC]G-NH2; thioether N-14)
